Our source for the IC50 and GI50 values is US20250188040A1, “PHARMACEUTICAL COMPOSITIONS COMPRISING WRN HELICASE INHIBITORS” (Vividion Therapeutics, Inc., priority 2022, published 2025).

The target of assay [1] is T1, WRN C727 (Homo sapiens, UniProt Q14191).
T1 construct: endogenous in cells; host or cells: OCI-AML2
Description: Target engagement, in situ (cell), OCI-AML2. The conditions noted are these: OCI-AML2 cells, read-out: OCI-AML2 WRN C727 TE50 in situ (cell). Type of assay: cell-based. Here is the method: Cells or cell lysates were treated with a dose response of compound followed by probe treatment, which labels solvent exposed cysteines. Proteins were enzymatically digested with trypsin and probe-labelled peptides were enriched with streptavidin. Isolated peptides were then separated using reversed-phase liquid chromatography on a C18 column (Dionex Ultimated 3000 nano-LC, Thermo). Peptides were analyzed by parallel reaction monitoring mass spectrometry (Exploris 120, Thermo).
Target engagement (%) is calculated relative to DMSO treated control samples.

The target of assay [2] is T1, WRN C727. Description: Target engagement, in vitro (lysate), OCI-AML2. Type of assay: binding. Particulars: read-out: OCI-AML2 WRN C727 TE50 in vitro (lysate). An outline of the steps: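 OCI-AML2 intact cells or lysates dosed with compound, then a cysteine-reactive probe; after trypsin digestion, probe-labelled peptides were streptavidin-enriched and quantified by nano-LC parallel reaction monitoring MS. Engagement (%) relative to DMSO controls.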

The target in assay [3] is hWRN(519-1227)_C-H3CV-GFP-10His (Homo sapiens, UniProt Q14191). In words: Helicase Assay for WRN Inhibition (ATP-dependent, fluorescence based).
Sequence of hWRN(519-1227)_C-H3CV-GFP-10His (Q14191 519-1227): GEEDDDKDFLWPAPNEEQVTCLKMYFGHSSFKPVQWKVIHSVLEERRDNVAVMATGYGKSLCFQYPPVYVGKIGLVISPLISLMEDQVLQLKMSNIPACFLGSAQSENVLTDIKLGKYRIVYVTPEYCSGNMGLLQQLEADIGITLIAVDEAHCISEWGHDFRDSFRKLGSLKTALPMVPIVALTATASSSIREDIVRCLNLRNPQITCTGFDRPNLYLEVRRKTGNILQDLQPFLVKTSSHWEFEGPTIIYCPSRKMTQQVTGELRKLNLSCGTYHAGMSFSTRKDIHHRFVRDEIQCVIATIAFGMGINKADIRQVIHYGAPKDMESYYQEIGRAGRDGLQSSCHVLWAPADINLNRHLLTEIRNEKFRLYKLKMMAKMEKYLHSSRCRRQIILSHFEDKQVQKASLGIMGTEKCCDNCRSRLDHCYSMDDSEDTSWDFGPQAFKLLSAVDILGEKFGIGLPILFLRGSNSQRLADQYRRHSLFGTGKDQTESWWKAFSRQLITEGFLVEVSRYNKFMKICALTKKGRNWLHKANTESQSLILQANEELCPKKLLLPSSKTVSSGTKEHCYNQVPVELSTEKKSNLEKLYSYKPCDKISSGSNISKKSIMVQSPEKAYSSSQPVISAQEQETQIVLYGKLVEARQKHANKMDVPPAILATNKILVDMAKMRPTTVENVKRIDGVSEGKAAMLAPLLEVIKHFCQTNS
The test system of assay [4] is SW480 cells. Description: Cell growth assay (CellTiter-Glo 2.0), SW480 MSS cell line. Particulars: Homo sapiens, SW480, 120 h, read-out: Cell Growth Inhibition GI50 SW480.
Description: (§1) The effects of compound on cellular viability were determined using the CellTiter-Glo® 2.0 Luminescent Cell Viability Assay (Promega, Madison, WI).
(§2) SW480 cells were seeded at 1,000 cells per well in Eagle's Minimum Essential Medium (EMEM) with 10% FBS. Both cell lines were seeded in a volume of 50 μL medium per well. […] The concentration range was adjusted as needed for compounds of different potencies. The cells treated with compounds were incubated for 5 days at 37° C. in 5% CO2. […] The plate was then read on a Clariostar plate reader (BMG Labtech, Cary, NC) in luminescence mode. The previously measured baseline cell viability was subtracted from the luminescence value of each well, and cell viability (% of DMSO) was plotted as a function of log compound concentration. The EC50 was then calculated for each compound using Dotmatics Software (San Diego, CA).
Assay [5] concerns HCT 116 cells. In words: Cell growth assay (CellTiter-Glo 2.0), HCT 116 MSI-H cell line. Particulars: Homo sapiens, HCT-116, 120 h, read-out: Cell Growth Inhibition GI50 HCT-116. In general terms: Cellular ATP, detected with luciferase, serves as a proxy for viable cell number.
Description: as §1, §2
Where [6] appears, read: WRN Helicase IC50, 30 min preincubation with ATP, 30 min reaction.

The structures appear in SMILES notation. Where two headings read alike, the source gives them in different places.

Broadly, the GI50 is the concentration giving 50% growth inhibition.

T1 sequence (Q14191 whole entry): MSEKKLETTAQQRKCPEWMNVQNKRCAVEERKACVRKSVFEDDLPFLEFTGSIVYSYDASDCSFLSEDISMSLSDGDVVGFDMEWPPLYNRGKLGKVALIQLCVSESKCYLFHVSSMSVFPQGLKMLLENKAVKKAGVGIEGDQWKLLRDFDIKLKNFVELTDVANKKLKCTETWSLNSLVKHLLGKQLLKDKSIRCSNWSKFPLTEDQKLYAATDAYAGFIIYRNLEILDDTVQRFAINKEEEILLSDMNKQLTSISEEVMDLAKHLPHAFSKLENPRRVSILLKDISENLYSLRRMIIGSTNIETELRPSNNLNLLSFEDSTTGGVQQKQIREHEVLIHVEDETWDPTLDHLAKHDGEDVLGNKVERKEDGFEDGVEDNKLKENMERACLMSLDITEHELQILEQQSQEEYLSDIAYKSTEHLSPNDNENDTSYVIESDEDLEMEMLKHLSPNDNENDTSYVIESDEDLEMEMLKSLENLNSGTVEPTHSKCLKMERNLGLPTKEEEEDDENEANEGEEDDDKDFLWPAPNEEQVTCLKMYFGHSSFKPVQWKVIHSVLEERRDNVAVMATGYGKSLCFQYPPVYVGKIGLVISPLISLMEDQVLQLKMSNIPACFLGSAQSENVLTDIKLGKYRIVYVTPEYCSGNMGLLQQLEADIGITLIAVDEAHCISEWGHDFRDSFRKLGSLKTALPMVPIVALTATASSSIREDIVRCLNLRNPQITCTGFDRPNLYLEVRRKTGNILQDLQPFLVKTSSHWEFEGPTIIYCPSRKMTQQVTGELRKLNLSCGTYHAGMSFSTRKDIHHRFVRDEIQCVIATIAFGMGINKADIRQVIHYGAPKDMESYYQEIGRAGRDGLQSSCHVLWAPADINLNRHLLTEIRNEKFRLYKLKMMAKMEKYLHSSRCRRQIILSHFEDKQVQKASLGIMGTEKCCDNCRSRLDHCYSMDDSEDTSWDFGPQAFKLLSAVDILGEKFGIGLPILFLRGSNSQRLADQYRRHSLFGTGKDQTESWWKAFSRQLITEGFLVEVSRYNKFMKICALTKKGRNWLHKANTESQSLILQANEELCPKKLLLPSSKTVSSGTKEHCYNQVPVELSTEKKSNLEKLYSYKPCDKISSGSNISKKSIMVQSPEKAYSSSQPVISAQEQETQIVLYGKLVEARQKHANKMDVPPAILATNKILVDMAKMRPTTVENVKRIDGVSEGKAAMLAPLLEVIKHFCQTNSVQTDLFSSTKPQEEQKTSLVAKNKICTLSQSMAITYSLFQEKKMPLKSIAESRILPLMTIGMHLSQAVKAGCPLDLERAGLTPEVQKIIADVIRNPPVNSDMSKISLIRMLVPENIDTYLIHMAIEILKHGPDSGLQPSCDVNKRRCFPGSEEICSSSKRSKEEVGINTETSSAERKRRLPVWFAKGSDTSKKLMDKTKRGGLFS

On to `C[C@@H](/C=C/S(C)(=O)=O)NC(=O)c1cnc(C2CCCC2)nc1Oc1cc(F)cc(Cl)c1` [Example 122, (S,E)-4-(3-chloro-5-fluorophenoxy)-2-cyclopentyl-N-(4-(methylsulfonyl)but-3-en-2-yl)pyrimidine-5-carboxamide], for which the IC50 in assay [1] was 8.07 µM; in assay [2] it was greater than 100 µM; in assay [3] (setting [6]), 22 µM.

For the compound `C[C@@H](/C=C/S(C)(=O)=O)NC(=O)c1cnc(C(C)(C)C)nc1OC1CCCC1` [Example 153, (S,E)-2-(tert-butyl)-4-(cyclopentyloxy)-N-(4-(methylsulfonyl)but-3-en-2-yl)pyrimidine-5-carboxamide], the results for the IC50 in assay [1], in assay [2] and in assay [3] (setting [6]) were 0.16 µM, 1.88 µM and 0.5 µM, respectively. Besides, the GI50 was greater than 10 µM in assay [4] and 0.165 µM in assay [5].

In the case of `C=C(C#N)CNC(=O)c1cnc(C(F)(F)C2CC2)nc1Oc1ccccc1` [Example 272, N-(2-cyanoallyl)-2-(cyclopropyldifluoromethyl)-4-phenoxypyrimidine-5-carboxamide], the IC50 in assay [1] worked out at 3.96 µM; in assay [2], 8.28 µM; in assay [3], 0.38 µM. Further, the GI50 in assay [4] amounted to 7.8 µM; in assay [5], 0.21 µM.

Turning to `CC(C)(C)c1ncc(C(=O)N[C@H](/C=C/S(C)(=O)=O)C2CC2)c(Oc2ccccc2)n1` [Example 58, (S,E)-2-(tert-butyl)-N-(1-cyclopropyl-3-(methylsulfonyl)allyl)-4-phenoxypyrimidine-5-carboxamide], the IC50 in assay [1] came to 0.016 µM; in assay [2], 0.448 µM; in assay [3] (setting [6]), 0.0577 µM. In addition, the GI50 in assay [4] came to 8.73 µM; in assay [5], 0.0235 µM.

As to `CC(C)c1ncc(C(=O)NC/C=C/S(C)(=O)=O)c(Oc2ccccc2)n1` [Example 14, (E)-2-isopropyl-N-(3-(methylsulfonyl)allyl)-4-phenoxypyrimidine-5-carboxamide], the IC50 in assay [1] was 2.09 µM; in assay [2], 20 µM; in assay [3] (setting [6]), 10 µM. The 50% growth inhibitory concentration (GI50) in assay [4] was greater than 10 µM; in assay [5], 5.4 µM.

For the compound `CS(=O)(=O)/C=C/CNC(=O)c1cnc(C2CC2)nc1Oc1ccccc1` [Example 17, (E)-2-cyclopropyl-N-(3-(methylsulfonyl)allyl)-4-phenoxypyrimidine-5-carboxamide], the IC50 in assay [1] turned out to be 5.99 µM; in assay [2], 80 µM; in assay [3] (setting [6]), 7.62 µM. Also, the GI50 was greater than 10 µM in assay [4] and 6.3 µM in assay [5].

Take `C[C@@H](/C=C/S(C)(=O)=O)NC(=O)c1cnc(C(C)(C)C)nc1OC1CCCCC1` [Example 154, (S,E)-2-(tert-butyl)-4-(cyclohexyloxy)-N-(4-(methylsulfonyl)but-3-en-2-yl)pyrimidine-5-carboxamide]: the IC50 in assay [1] worked out at 0.14 µM; in assay [2], 1.33 µM; in assay [3] (setting [6]), 0.33 µM. Also, the 50% growth inhibitory concentration (GI50) was determined as 8.97 µM in assay [4] and 0.222 µM in assay [5].

Consider `C[C@@H](/C=C/S(C)(=O)=O)NC(=O)c1cnc(C(C)(C)C)cc1Oc1ccccc1` [Example 253, (S,E)-6-(tert-butyl)-N-(4-(methylsulfonyl)but-3-en-2-yl)-4-phenoxynicotinamide], for which the results for the IC50 in assay [1] and in assay [3] (setting [6]) were 0.2 µM and 0.94 µM, respectively. For the same compound, the GI50 in assay [4] is greater than 10 µM; in assay [5], 0.24 µM.

`CS(=O)(=O)/C=C/[C@@H](NC(=O)c1cnc(C(F)(F)C2CC2)nc1Oc1ccccc1)C1CCC1` [Example 225, (S,E)-N-(1-cyclobutyl-3-(methylsulfonyl)allyl)-2-(cyclopropyldifluoromethyl)-4-phenoxypyrimidine-5-carboxamide]: the IC50 in assay [1] was determined as 0.016 µM; in assay [2], 0.119 µM; in assay [3] (setting [6]), 0.0544 µM. Moreover, the GI50 in assay [4] worked out at 18 µM; in assay [5] it was 0.017 µM.

In the case of `COCC(/C=C/S(C)(=O)=O)NC(=O)c1cnc(C(F)(F)C2CC2)nc1Oc1ccccc1` (stereo in doubt) [Example 226, (S,E)-2-(cyclopropyldifluoromethyl)-N-(1-methoxy-4-(methylsulfonyl)but-3-en-2-yl)-4-phenoxypyrimidine-5-carboxamide], the IC50 was found to be 0.016 µM in assay [1], 0.116 µM in assay [2] and 0.0929 µM in assay [3] (setting [6]). In addition, the concentration for 50% growth inhibition (GI50) in assay [4] came to 27.9 µM; in assay [5], 0.023 µM.

For the compound `C[C@@H](/C=C/S(C)(=O)=O)NC(=O)c1cnc(C2CCC2)nc1Oc1ccccc1` [Example 44, (S,E)-2-cyclobutyl-N-(4-(methylsulfonyl)but-3-en-2-yl)-4-phenoxypyrimidine-5-carboxamide], the figures for the IC50 in assay [1], in assay [2] and in assay [3] (setting [6]) were 0.26 µM, 1.18 µM and 0.91 µM, respectively. Moreover, the GI50 is greater than 10 µM in assay [4] and 0.27 µM in assay [5].

Consider `CS(=O)(=O)/C=C/CNC(=O)c1cnc(N2CCCC2)nc1Oc1ccccc1` [Example 167, (E)-N-(3-(methylsulfonyl)allyl)-4-phenoxy-2-(pyrrolidin-1-yl)pyrimidine-5-carboxamide], for which the IC50 in assay [1] was 7.08 µM; in assay [2], greater than 100 µM; in assay [3] (setting [6]), 15.6 µM.

Take `CCOc1cc(C2CCCC2)ccc1C(=O)NC/C=C/S(C)(=O)=O` [Example 280, (E)-4-cyclopentyl-2-ethoxy-N-(3-(methylsulfonyl)allyl)benzamide]: the IC50 in assay [1] came to 21.3 µM; in assay [2] it was 8.49 µM; in assay [3] (setting [6]), 62 µM.

For the compound `CC(C)(C)c1ncc(C(=O)NC/C=C/S(C)(=O)=O)c(Oc2ccccc2)n1` [Example 56, (E)-2-(tert-butyl)-N-(3-(methylsulfonyl)allyl)-4-phenoxypyrimidine-5-carboxamide], the IC50 amounted to 0.43 µM in assay [1], 4.9 µM in assay [2] and 0.842 µM in assay [3] (setting [6]). Also, the GI50 in assay [4] is 10.6 µM; in assay [5], 0.378 µM.

Turning to `C[C@@H](/C=C/S(C)(=O)=O)NC(=O)c1cnc(C2CC2)nc1OC1CCCC1` [Example 144, (S,E)-4-(cyclopentyloxy)-2-cyclopropyl-N-(4-(methylsulfonyl)but-3-en-2-yl)pyrimidine-5-carboxamide], the IC50 in assay [1] amounted to 0.8 µM; in assay [2], 20 µM; in assay [3] (setting [6]), 1.89 µM. In addition, the concentration for 50% growth inhibition (GI50) in assay [4] is greater than 16 µM; in assay [5], 0.693 µM.

On to `N#CC=C1CN(C(=O)c2cnc(C3CC3)nc2Oc2ccccc2)C1` [Example 264, 2-(1-(2-cyclopropyl-4-phenoxypyrimidine-5-carbonyl)azetidin-3-ylidene)acetonitrile], for which the IC50 in assay [1] came to 6.65 µM; in assay [2] it was 16.3 µM; in assay [3], 2.3 µM. The values for the GI50 in assay [4] and in assay [5] were 8.1 µM and 3.8 µM, respectively.

Turning to `C[C@@H](/C=C/S(C)(=O)=O)NC(=O)c1cnc(C2CCCC2)nc1Oc1cc(Cl)cc(Cl)c1` [Example 123, (S,E)-2-cyclopentyl-4-(3,5-dichlorophenoxy)-N-(4-(methylsulfonyl)but-3-en-2-yl)pyrimidine-5-carboxamide], the IC50 in assay [1] was 20 µM; in assay [2], greater than 100 µM; in assay [3] (setting [6]) it was 29 µM.

In the case of `C[C@@H](/C=C/S(C)(=O)=O)NC(=O)c1cnc(-c2ccccc2)nc1Oc1ccccc1` [Example 80, (S,E)-N-(4-(methylsulfonyl)but-3-en-2-yl)-4-phenoxy-2-phenylpyrimidine-5-carboxamide], the IC50 in assay [1] is 20.4 µM; in assay [2], greater than 100 µM; in assay [3] (setting [6]) it was 148 µM.

With `CCc1cccc(Oc2nc(C3CCCC3)ncc2C(=O)N[C@@H](C)/C=C/S(C)(=O)=O)c1` [Example 108, (S,E)-2-cyclopentyl-4-(3-ethylphenoxy)-N-(4-(methylsulfonyl)but-3-en-2-yl)pyrimidine-5-carboxamide], the IC50 is 50 µM in assay [1], greater than 100 µM in assay [2] and 87 µM in assay [3] (setting [6]).

Take `CS(=O)(=O)C=C1CN(C(=O)c2cnc(C3CC3)nc2Oc2ccccc2)C1` [Example 188, (2-cyclopropyl-4-phenoxypyrimidin-5-yl)(3-((methylsulfonyl)methylene)azetidin-1-yl)methanone]: the figures for the IC50 in assay [1] and in assay [3] were 0.49 µM and 1.1 µM, respectively. Also, the values for the 50% growth inhibitory concentration (GI50) in assay [4] and in assay [5] were greater than 15.2 µM and 0.391 µM, respectively.

For the compound `C[C@@H](/C=C/S(C)(=O)=O)NC(=O)c1cnc(C2CCCC2)nc1Oc1cccc2ccccc12` [Example 139, (S,E)-2-cyclopentyl-N-(4-(methylsulfonyl)but-3-en-2-yl)-4-(naphthalen-1-yloxy)pyrimidine-5-carboxamide], the IC50 in assay [1] is greater than 100 µM; in assay [2], greater than 100 µM; in assay [3] (setting [6]), 192 µM.

With `C[C@@H](/C=C/S(C)(=O)=O)NC(=O)c1cnc(C2CCCC2)nc1Oc1cccc(O)c1` [Example 136, (S,E)-2-cyclopentyl-4-(3-hydroxyphenoxy)-N-(4-(methylsulfonyl)but-3-en-2-yl)pyrimidine-5-carboxamide], the results for the IC50 in assay [2] and in assay [3] (setting [6]) were 18.5 µM and 11 µM, respectively. Moreover, the concentration for 50% growth inhibition (GI50) in assay [4] was greater than 10 µM; in assay [5] it was 5.1 µM.
